Assays:
[1] = tested on: phospho-MEK in A549 cells; assay: Cell-based pMEK (pMEK:tMEK, CRAF bypass) in A549 cells; settings: 2 h, pMEK to total MEK normalized to DMSO control
Procedure: (§1) Materials and Methods: A549 or A375 cells were seeded in 6-well plates at an appropriate seeding density on day 0. On day 2 or 3, after checking the health and confluency of cells, the media was aspirated and replaced with 1 mL media containing a predetermined concentration of compound and incubated for 2 hours. After 2 hours, the media was aspirated, and the cells washed 2 times with cold PBS. Cells were lysed on ice, with 50 uL 1×CST lysis buffer +1 mM PMSF for 5 minutes. After 5 minutes, cells were removed using a scraper and transferred to cold 1.5 mL tubes, and centrifuged for 10 min, 4° C., 14,000×g. Supernatant was gently removed and snap frozen in liquid nitrogen. Protein concentration of the lysate was determined using Bradford Reagent (analyzed using SpectraMax M2E) and diluted to 1 mg/mL or pERK or 1.5 mg/mL for pMEK analysis. […] All dilutions were in Milk-free antibody diluent.
(§2) A549 or […] cells were treated in duplicate for two hours with compounds at varying concentrations. After two hours, the cells were lysed, snap frozen, and stored at −80° C. After storage, the lysate was quantified with the Bradford assay. Before the lysates were prepared to run on the Jess, the lysates were diluted to 1 mg/mL for pERK analysis and 1.5 mg/mL pMEK analysis using quantitative Western blotting. ERK and MEK phosphorylation levels were estimated by taking the ratio of phospho-protein to total protein and normalizing to the DMSO control.
as §2

[2] = tested on: phospho-ERK in A549 (KRAS G12S) cells; assay: Cell-based pERK (pERK:tERK) in A549 cells; set-up: A549-pERK 10 uM, 2 h: unit not given here; settings: for A549-pERK (10 nM, 2 h): phospho- to total protein ratio normalized to DMSO control (Table 9)
Procedure: Media components, reagents and buffers for Western Blot: All cell culture media components were obtained from ThermoFisher Scientific. […] Laemmli sample loading 4× buffer (ThermoFisher Scientific, Cat No. NP0007). MOPS/SDS electrophoresis running buffer (GenScript, Cat No. M00138).
Subculture conditions: Adherent cells were grown to approximately 90% confluency, culture medium was aspirated and the cell layer was rinsed with PBS. […] Eight mL media was added, cells were spun down at 1000×g for 5 minutes. Cell pellet was re-suspended in 10 mL media and an appropriate volume was inoculated into a new culture flask.
Compound (drug) treatment: Cells were plated in a 6-well plate at a density of 250,000-300,000 cells/well in 3 mL media and incubated 37° C. in a humidified, 5% CO2 incubator. […] These solutions were added to the cells (3 uL/well), mixed by swirling the plate, and incubated at 37° C. in a humidified, 5% CO2 incubator for 2 hours.
Cell lysis and protein estimation: Cells were washed with PBS, and scraped in 50 μL of lysis buffer containing protease and phosphatase inhibitors. Cell lysates were stored at −20° C. Cell lysates were thawed and spun at 12,000 rpm for one minute, 3 ul of the supernatant was added to 500 μL of Coomassie blue reagent following by 500 μL of water. […] Protein standards were used (0-20 mg/mL) to calculate protein concentrations of test samples.
All samples were heated at 95° C. for 5 minutes, cooled to room temperature and spun down. […] After the run, gel was removed and protein transfer was done using iBlot for 7 minutes, as per manufacturer's recommendations. After the transfer, nitrocellulose membrane was incubated on a shaker in 5 mL of blocking buffer at room temperature for 1 hr. The blot was then incubated overnight on a shaker in 5 ml of blocking buffer containing 0.2% Tween-20 and primary antibody, at room temperature. Anti-phospho-STAT3 antibody was used at a dilution of 1:500, the other 3 primary antibodies were used at a dilution of 1:1000.
Next day, the blot was washed 3 times for 10 min each with 10 mL of TBST followed by incubation on a shaker in 5 ml of blocking buffer containing 0.2% Tween-20 and 0.5 ul of the IRDye labeled secondary antibodies, diluted 1:10000, at room temperature for 1 hr. The blot was then washed 3 times for 10 min each with 10 mL of TBST and dried between sheets of paper towels. Imaging was done using LICOR's Odyssey imaging system, quantitation was done using their software, Image Studio version 3.1.
as §1
They were grown in T75 flasks in DMEM containing 10% FBS and Pen-Strep. at 37° C. in a humidified, 5% CO2 incubator. The adherent cells were grown to about 90% confluency, culture medium was aspirated, and the cell layer was rinsed with PBS. […] Eight mL media was added, cells were spun down at 1000 g for 5 minutes. Cell pellet was re-suspended in 10 mL media and an appropriate volume was inoculated into a new culture flask. Cells were plated in a 6-well plate at a density of 250,000-300,000 cells/well in 3 mL media and incubated 37° C. in a humidified, 5% CO2 incubator.

PAMPA (pH 7.4) = type: in vitro ADME; settings: PAMPA; pH = 7.4 (Table 14)

Row | SMILES | A549-CRAF BP 100 nM, 2 h [1] | A549-pERK (10 nM, 2 h) ([2]; 2 h) | pERK:tERK (10 nM 2 h A549) ([2]; Phospho-ERK Screen in A549 (KRAS G12S), head 10 nM 2 h, title 10 μM for 2 hours) | A549-pERK 10 uM, 2 h ([2]; 10 uM, 2 h, phospho- to total protein ratio normalized to DMSO control) | Papp at 4 h, 50 μM (PAMPA (pH 7.4)) [×10⁻⁶ cm/s]
1 | CCCN(C)Cc1c(Cc2cccc(NS(=O)(=O)NC)c2F)c(=O)oc2cc(OC(=O)N(C)C)ccc12 [Compound 81] | 78.3 | 57.6 |  |  | 
2 | CNS(=O)(=O)Nc1cccc(Cc2c(CN(C)C3CC3)c3ccc(OC(=O)N(C)C)cc3oc2=O)c1F [Compound 82] | 72.3 | 64.9 |  |  | 
3 | CNS(=O)(=O)Nc1cccc(Cc2c(CN(C)CC3CC3)c3ccc(OC(=O)N(C)C)cc3oc2=O)c1F [Compound 84] | 87.3 | 83.2 |  |  | 
4 | CNS(=O)(=O)Nc1cccc(Cc2c(CN(C)C3CCC3)c3ccc(OC(=O)N(C)C)cc3oc2=O)c1F [Compound 86] | 53.2 | 96.4 |  |  | 
5 | CNS(=O)(=O)Nc1cccc(Cc2c(CN(C)CC#N)c3ccc(OC(=O)N(C)C)cc3oc2=O)c1F [Compound 87] | 95.8 | 63.8 |  |  | 
6 | CNS(=O)(=O)Nc1cccc(Cc2c(CN(C)CC3CCC3)c3ccc(OC(=O)N(C)C)cc3oc2=O)c1F [Compound 88] | 53.6 | 142 |  |  | 
7 | CNS(=O)(=O)Nc1cccc(Cc2c(CNc3ccsc3)c3ccc(OC(=O)N(C)C)cc3oc2=O)c1F [Compound 90] | 71 | 72.4 |  |  | 
8 | CNS(=O)(=O)Nc1cccc(Cc2c(CNc3cncs3)c3ccc(OC(=O)N(C)C)cc3oc2=O)c1F [Compound 91] | 84.2 | 74.6 |  |  | 
9 | CNS(=O)(=O)Nc1cccc(Cc2c(CN(C)c3ccc(Cl)cc3)c3ccc(OC(=O)N(C)C)cc3oc2=O)c1F [Compound 97] | 52.1 (mean, n = 2) | 56.5 |  |  | 
10 | CCS(=O)(=O)Nc1cccc(Cc2c(C)c3ccc(OC(=O)N(C)C)cc3oc2=O)c1F [Compound 107] | 39.9 | 18.0 |  |  | 
11 | CNS(=O)(=O)Nc1cccc(Cc2c(C)c3cc(C)c(OC(=O)N(C)C)cc3oc2=O)c1F [Compound 108] | 47.9 (mean, n = 2) | 5.78 |  |  | 
12 | CNS(=O)(=O)Nc1cccc(Cc2c(C)c3cc(Cl)c(OC(=O)N(C)C)cc3oc2=O)c1F [Compound 109] | 41.9 (mean, n = 2) | 4.51 |  |  | 
13 | CNS(=O)(=O)Nc1nccc(Cc2c(C)c3cc(C)c(OC(=O)N(C)C)cc3oc2=O)c1F [Compound 110] | 56.6 (mean, n = 2) | 5.92 |  |  | 
14 | CNS(=O)(=O)Nc1nccc(Cc2c(C)c3cc(Cl)c(OC(=O)N(C)C)cc3oc2=O)c1F [Compound 111] | 48.6 (mean, n = 2) | 4.63 |  |  | 
15 | Cc1c(Cc2ccnc(NS(=O)(=O)C3CC3)c2F)c(=O)oc2cc(OC(=O)N(C)C)ccc12 [Compound 112] | 52.9 (mean, n = 2) | 46.3 |  |  | 
16 | Cc1c(Cc2cccc(NS(=O)(=O)C3CC3)c2F)c(=O)oc2cc(OC(=O)N(C)C)ccc12 [Compound 113] | 48.0 (mean, n = 2) | 24.7 |  |  | 
17 | Cc1c(Cc2ccnc(NS(=O)(=O)C(C)C)c2F)c(=O)oc2cc(OC(=O)N(C)C)ccc12 [Compound 114] | 59.9 (mean, n = 3) | 36.6 |  |  | 
18 | Cc1c(Cc2cccc(NS(=O)(=O)C(C)C)c2F)c(=O)oc2cc(OC(=O)N(C)C)ccc12 [Compound 115] | 39.2 (mean, n = 2) | 13.5 |  |  | 
19 | Cc1c(Cc2cccc(NS(=O)(=O)C3CCC3)c2F)c(=O)oc2cc(OC(=O)N(C)C)ccc12 [Compound 118] | 39.1 (mean, n = 2) | 21.1 |  |  | 
20 | CCS(=O)(=O)Nc1nccc(Cc2c(C)c3ccc(OC(=O)N(C)C)cc3oc2=O)c1F [Compound 119] | 66.1 | 64.8 |  |  | 
21 | Cc1c(Cc2ccnc(NS(=O)(=O)C3CCC3)c2F)c(=O)oc2cc(OC(=O)N(C)C)ccc12 [Compound 125] | 41.7 | 54.4 |  |  | 
22 | CNS(=O)(=O)Nc1cccc(Cc2c(CN(C)C)c3ccc(OC(=O)N4CCC4)cc3oc2=O)c1F [Compound 128] | 37.7 | 66.3 |  |  | 
23 | CCS(=O)(=O)Nc1cccc(Cc2c(CN(C)C)c3cc(Cl)c(OC(=O)N(C)C)cc3oc2=O)c1F [Compound 132] | 57.8 | 62.6 |  |  | 
24 | CNS(=O)(=O)Nc1nccc(Cc2c(CN(C)C)c3cc(F)c(OC(=O)N(C)C)cc3oc2=O)c1F [Compound 140] | 70.3 | 65.0 |  |  | 
25 | CCS(=O)(=O)Nc1cccc(Cc2c(CN3CCNCC3)c3cc(Cl)c(OC(=O)N(C)C)cc3oc2=O)c1F [Compound 147] | 46.4 | 21.7 | 28 (n = 2) |  | 
26 | CCS(=O)(=O)Nc1nccc(Cc2c(CN(C)C)c3ccc(OC(=O)N(C)C)cc3oc2=O)c1F [Compound 148] | 56.5 | 49.6 |  |  | 
27 | CN(C)C(=O)Oc1ccc2c(CN3CCNCC3)c(Cc3ccnc(NS(=O)(=O)C4CC4)c3F)c(=O)oc2c1 [Compound 150] | 90.2 | 47.4 |  |  | 
28 | CNS(=O)(=O)Nc1cccc(Cc2c(CN3CC4(CCC4)C3)c3ccc(OC(=O)N(C)C)cc3oc2=O)c1F [Compound 153] | 54.1 | 50.2 |  |  | 
29 | C#CCNCCc1c(Cc2cccc(NS(=O)(=O)NC)c2F)c(=O)oc2cc(OC(=O)N(C)C)ccc12 [Compound 183] | 65.9 (mean, n = 2) | 32.4 |  | 0.82 | 
30 | CCS(=O)(=O)Nc1cccc(Cc2c(CN(C)C)c3ccc(OC(=O)N(C)C)cc3oc2=O)c1Cl [Compound 249, 3-(2-chloro-3-(ethylsulfonamido)benzyl)-4-((dimethylamino)methyl)-2-oxo-2H-chromen-7-yl dimethylcarbamate] |  |  |  |  | 64
